Two molecules from patent US5674911A, “Antiinfective polyoxypropylene/polyoxyethylene copolymers and methods of use” (Cytrx Corporation, priority 1995, dated 1997) can be followed below.

For one data set, the system named is Mycobacterium avium. The data set can be described thus: growth index of Mycobacterium avium in Bactec 7H12 Middlebrook broth (14C fatty acid). The conditions noted are these: 0.04 μg/ml (FIG. 35).
A further data set in a line: in vitro. The conditions noted are these: human, pha-stimulated pbmc.
The next data set deals with HIV-1 (strain LAV-1). The data set can be described thus: anti-HIV-1 assay in PBMC (reverse transcriptase activity). In kind it is cell-based. The conditions noted are these: Human immunodeficiency virus 1, PBMC, 144 h, read-out: Anti-HIV-1 in PBMC: EC50.
The next data set deals with Vero cells. The data set can be described thus: growth / cytotoxicity in Vero cells. The conditions noted are these: Chlorocebus sabaeus, Vero, 96 h, read-out: % Growth inhibition, Vero.
Data set [1] in a line: growth / cytotoxicity in Vero cells. The conditions noted are these: african green monkey, vero cells.
In data set [2] the test system is human peripheral blood mononuclear cells (PBMC). Briefly: growth / cytotoxicity in uninfected mitogen stimulated human PBMC. The conditions noted are these: 144 h, read-out: % Growth inhibition, PBMC.

For the molecule `CO[C@H]1/C=C/O[C@@]2(C)Oc3c(C)c(O)c4c(O)c(c(/C=N/N5CCN(C)CC5)c(O)c4c3C2=O)NC(=O)/C(C)=C\C=C\[C@H](C)[C@H](O)[C@@H](C)[C@@H](O)[C@@H](C)[C@H](OC(C)=O)[C@@H]1C` [Rifampin, rifampin], in the data set with Mycobacterium avium, the “inhibiting growth of M. avium” value was “effective in inhibiting growth”.
The term EC50 denotes the concentration needed to bring the measured effect to its halfway point. Usually inhibition stands for the drop in the measured response relative to a control, in per cent. On to `Cc1cn([C@H]2C[C@H](N=[N+]=[N-])[C@@H](CO)O2)c(=O)[nH]c1=O` [AZT, azidothymidine], for which the CC50 at 144 h in “in vitro” was > 100 µM. The EC50 in the data set with HIV-1 (strain LAV-1) amounted to 0.0056 µM. In the data set with Vero cells, the inhibition at 0.1 µM is -1.8%, the inhibition at 1 µM was found to be 10.2%, the inhibition at 10 µM was 20.7% and the inhibition at 50 µM amounted to 47.4%. Also, the inhibition at 100 µM in the data set on Vero cells was determined as 66.3%. In data set [1], this molecule showed a CC50 at 96 h of 50.6 µM. Besides, in data set [2], the inhibition at 0.1 µM was -8.9%, the inhibition at 1 µM was -2.2%, the inhibition at 10 µM came out at 5.5% and the inhibition at 50 µM was 16.8%. Moreover, the inhibition at 100 µM in data set [2] turned out to be 28.4%.
